# Test system: tracheal smooth muscle
# Experiment: Dilating action to contraction of tracheal smooth muscle (potassium chloride-induced contraction of isolated trachea segment, Magnus tube)
# Assay type: cell-based
# Conditions: 30 μM test substance; contraction induced by 72.7 mM potassium chloride; guinea pig (Hartley, male) trachea segment
# Protocol: Each sample is tested by using two segment obtained from one animal; the trachea was removed from a guinea pig (Hartley, male, seven weeks age) and was made the segment, 6 mm in length. The segment was suspended in a Magnus tube containing a physiological salt solution of 37° C. with a flow of mixed gas consisting of 95% oxygen and 5% carbon dioxide gas. A base-line tension of 1 g was applied to the segment and, after tension of the sample became stable, the solution was exchanged with a solution containing 72.7 mM of potassium chloride to induce a contraction. When tension of the contraction by potassium chloride became stable, a compound of the formula (1) was added as a test substance to measure the change in the tension. The test substance was dissolved in dimethyl sulfoxide and added thereto. Incidentally, at the stage of addition, the final concentration of dimethyl sulfoxide was made not more than 0.3%. Changes in the tension was recorded on a recorder (R-64V, Rika Denki) after introducing to an amplifier for strain pressure (AP-621G, Nippon Koden Kogyo) via an FD pickup transducer (TB-611T, Nippon Koden Kogyo). Tension before addition of potassium chloride was set as 0 while that after addition of potassium chloride was set as 100 and the suppressing rate for contraction by potassium chloride after addition of the test substance was expressed by a relative percentage whereby the activity was determined according to the following criteria.
# The Compound No. in the table is the same as that in the Production Examples.
row,Molecule,Activity (suppressing rate for contraction by potassium chloride)
1,"2-thiomethyl-7,9-dihydroxy-10,11-dihydrodibenzo[b,f]oxepin-10-one S-oxide [Compound 109]",− (no suppressing action of not less than 50% was achieved at 30 μM)

# Same assay, conditions: Cavia porcellus; 30 μM test substance; contraction induced by 72.7 mM potassium chloride; guinea pig (Hartley, male) trachea segment; read-out: Activity (suppressing rate for contraction by potassium chloride)
row,Molecule,inhibition at 30 µM
1,"O=C1Cc2ccc(Cl)cc2Oc2cc(O)cc(O)c21 [Compound 15, 3-chloro-7,9-dihydroxy-10,11-dihydrodibenz[b,f]oxepin-10-one]",≥ 50%
2,"Oc1cc(O)c2c(c1)Oc1cc(F)ccc1CC2 [Compound 24, 7-fluoro-10,11-dihydrodibenz[b,f]oxepin-1,3-diol]",≥ 50%
3,"O=C1Cc2cc(C(F)(F)F)ccc2Oc2cc(O)cc(O)c21 [Compound 38, 7,9-dihydroxy-2-trifluoromethyl-10,11-dihydrodibenz[b,f]oxepin-10-one]",≥ 50%
4,"CCC(=O)c1c(O)c2c(c(C(=O)CC)c1O)Sc1ccccc1CC2 [Compound 89, 2,4-dipropionyl-10,11-dihydrodibenzo[b,f]thiepin-1,3-diol]",≥ 50%
5,"CCC(=O)c1ccc2c(c1)CCc1c(O)cc(O)cc1S2 [Compound 91, 8-propionyl-10,11-dihydrodibenzo[b,f]thiepin-1,3-diol]",≥ 50%
6,"CCc1ccc2c(c1)CC(=O)c1c(O)cc(OC)cc1O2 [Compound 111, 2-ethyl-9-hydroxy-7-methoxy-10,11-dihydrodibenzo[b,f]oxepin-10-one]",≥ 50%
7,"Nc1ccc2c(c1)CC(=O)c1c(O)cc(O)cc1O2 [Compound 71, 2-amino-7,9-dihydroxy-10,11-dihydrodibenz[b,f]oxepin-10-one]",≥ 50%
8,"CC(=O)c1ccc2c(c1)C=Cc1cc(O)c(O)cc1S2 [Compound 92, 8-acetyldibenzo[b,f]thiepin-2,3-diol]",≥ 50%
9,"CCc1ccc2c(c1)CC(=O)c1c(O)cc(O)cc1O2 [Compound 112, 2-ethyl-7,9-dihydroxy-10,11-dihydrodibenzo[b,f]oxepin-10-one]",≥ 50%
10,"Oc1cc(O)c2c(c1)Oc1cc(Cl)ccc1CC2 [Compound 16, 7-chloro-10,11-dihydrodibenz[b,f]oxepin-1,3-diol]",≤ 50%
11,"Oc1cc(O)c2c(c1)Oc1ccccc1CC2 [Compound 12, 10,11-dihydrodibenz[b,f]oxepin-1,3-diol]",≥ 50%
12,"O=C1Cc2ccccc2Oc2c(O)ccc(O)c21 [Compound 7, 6,9-dihydroxy-10,11-dihydrodibenz[b,f]oxepin-10-one]",≥ 50%
13,"O=C1Cc2cc(F)ccc2Oc2cc(O)cc(O)c21 [Compound 29, 2-fluoro-7,9-dihydroxy-10,11-dihydrodibenz[b,f]oxepin-10-one]",≥ 50%
14,"Oc1cc(O)c2c(c1)Oc1c(ccc(Cl)c1Cl)CC2 [Compound 28, 6,7-dichloro-10,11-dihydrodibenz[b,f]oxepin-1,3-diol]",≤ 50%
15,"CC(=O)c1ccc2c(c1)CCc1c(O)cc(O)cc1O2 [Compound 95, 8-acetyl-10,11-dihydrodibenzo[b,f]oxepin-1,3-diol]",≥ 50%
16,"CCC(=O)c1c(O)cc(O)c2c1Sc1ccccc1CC2 [Compound 90, 4-propionyl-10,11-dihydrodibenzo[b,f]thiepin-1,3-diol]",≥ 50%
17,"O=C1Cc2cc(O)c(O)cc2Oc2cc(O)cc(O)c21 [Compound 40, 2,3,7,9-tetrahydroxy-10,11-dihydrodibenz[b,f]oxepin-10-one]",≤ 50%
18,"Oc1cc(O)c2c(c1)Oc1ccc(Cl)cc1CC2 [Compound 20, 8-chloro-10,11-dihydrodibenz[b,f]oxepin-1,3-diol]",≤ 50%
19,"CSc1ccc2c(c1)CC(=O)c1c(O)cc(O)cc1O2 [Compound 108, 2-thiomethyl-7,9-dihydroxy-10,11-dihydrodibenzo[b,f]oxepin-10-one]",≥ 50%
20,"Nc1ccc2c(c1)CCc1c(O)cc(O)cc1O2 [Compound 77, 8-amino-10,11-dihydrodibenz[b,f]oxepin-1,3-diol]",≤ 50%
21,"O=C1Cc2ccccc2Oc2c(O)c(O)cc(O)c21 [Compound 2, 6,7,9-trihydroxy-10,11-dihydrodibenz[b,f]oxepin-10-one]",≤ 50%
22,"O=C1Cc2cc(C#CCCO)ccc2Oc2cc(O)cc(O)c21 [Compound 115, 2-(4-hydroxy-1-butynyl)-7,9-dihydroxy-10,11-dihydrodibenzo[b,f]oxepin-10-one]",≥ 50%
23,"CC(O)c1ccc2c(c1)CCc1c(O)cc(O)cc1O2 (stereo not shown) [Compound 96, 8-(1-hydroxyethyl)-10,11-dihydrodibenzo[b,f]oxepin-1,3-diol]",≥ 50%
24,"CC(=O)c1c(O)cc(O)c2c1Sc1ccccc1CC2 [Compound 85, 4-acetyl-10,11-dihydrodibenzo[b,f]thiepin-1,3-diol]",≥ 50%

row,Molecule,inhibition at 30 µM
1,"O=C1Cc2ccccc2Oc2c1ccc(O)c2O [Compound 8, 6,7-dihydroxy-10,11-dihydrodibenz[b,f]oxepin-10-one]",≤ 50%
2,"O=C1Cc2cccc(Cl)c2Oc2cc(O)cc(O)c21 [Compound 36, 4-chloro-7,9-dihydroxy-10,11-dihydrodibenz[b,f]oxepin-10-one]",≥ 50%
3,"Oc1cc2c(cc1O)Sc1ccccc1CC2 [Compound 44, 10,11-dihydrodibenz[b,f]thiepin-2,3-diol]",≥ 50%
4,"O=C1Cc2cc(C#CCCCO)ccc2Oc2cc(O)cc(O)c21 [Compound 116, 2-(5-hydroxy-1-pentynyl)-7,9-dihydroxy-10,11-dihydrodibenzo[b,f]oxepin-10-one]",≥ 50%
5,"CC(=O)c1c(O)c2c(c(C(C)=O)c1O)Sc1ccccc1CC2 [Compound 84, 2,4-diacetyl-10,11-dihydrodibenzo[b,f]thiepin-1,3-diol]",≥ 50%
6,"Oc1cc(O)c2c(c1)Oc1ccc(C(F)(F)F)cc1CC2 [Compound 39, 8-trifluoromethyl-10,11-dihydrodibenz[b,f]oxepin-1,3-diol]",≥ 50%
7,"O=C1Cc2cc(Cl)ccc2Oc2cc(O)cc(O)c21 [Compound 19, 2-chloro-7,9-dihydroxy-10,11-dihydrodibenz[b,f]oxepin-10-one]",≥ 50%
8,"O=C(O)Cc1ccc2c(c1)CCc1c(O)cc(O)cc1O2 [Compound 97, 7,9-dihydroxy-10,11-dihydrodibenzo[b,f]oxepin-2-acetic acid]",≤ 50%
9,"O=C1Cc2cc(Cl)cc(Cl)c2Oc2cc(O)cc(O)c21 [Compound 34, 2,4-dichloro-7,9-dihydroxy-10,11-dihydrodibenz[b,f]oxepin-10-one]",≥ 50%
10,"Oc1cc(O)c2c(c1)Oc1ccc(F)cc1CC2 [Compound 30, 8-fluoro-10,11-dihydrodibenz[b,f]oxepin-1,3-diol]",≥ 50%
11,"O=C1Cc2ccc(Cl)c(Cl)c2Oc2cc(O)cc(O)c21 [Compound 27, 3,4-dichloro-7,9-dihydroxy-10,11-dihydrodibenz[b,f]oxepin-10-one]",≥ 50%
12,"CC(C)c1ccc2c(c1)CC(=O)c1cc(O)c(O)cc1S2 [Compound 106, 7,8-dihydroxy-2-(2-propyl)-10,11-dihydrodibenzo[b,f]thiepin-10-one]",≥ 50%
13,"Oc1cc(O)c2c(c1)Oc1c(Cl)cccc1CC2 [Compound 37, 6-chloro-10,11-dihydrodibenz[b,f]oxepin-1,3-diol]",≥ 50%
14,"CC(=O)c1c(O)cc(O)c2c1Oc1ccccc1CC2 [Compound 47, 4-acetyl-10,11-dihydrodibenz[b,f]oxepin-1,3-diol]",≥ 50%
15,"Oc1cc(O)c2c(c1)Sc1ccccc1CC2 [Compound 81, 10,11-dihydrodibenzo[b,f]thiepin-1,3-diol]",≥ 50%
16,"O=C1Cc2ccccc2Oc2cc(O)c(O)c(O)c21 [Compound 9, 7,8,9-trihydroxy-10,11-dihydrodibenz[b,f]oxepin-10-one]",≤ 50%
17,"O=C1Cc2c(F)cccc2Oc2cc(O)cc(O)c21 [Compound 49, 1-fluoro-7,9-dihydroxy-10,11-dihydrodibenz[b,f]oxepin-10-one]",≥ 50%
18,"O=C1Cc2c(F)cccc2Oc2cc(F)c(F)cc21 [Compound 63, 1,7,8-trifluoro-10,11-dihydrodibenz[b,f]oxepin-10-one]",≥ 50%
19,"Cc1ccc2c(c1)CC(=O)c1cc(O)c(O)cc1S2 [Compound 104, 7,8-dihydroxy-2-methyl-10,11-dihydrodibenzo[b,f]thiepin-10-one]",≥ 50%
20,"O=C1Cc2ccc(F)cc2Oc2cc(O)cc(O)c21 [Compound 23, 3-fluoro-7,9-dihydroxy-10,11-dihydrodibenz[b,f]oxepin-10-one]",≥ 50%
21,"CC(=O)c1ccc2c(c1)CCc1c(O)cc(O)cc1S2 [Compound 86, 8-acetyl-10,11-dihydrodibenzo[b,f]thiepin-1,3-diol]",≥ 50%
22,"O=C1Cc2ccccc2Oc2cc(O)c(O)cc21 [Compound 13, 7,8-dihydroxy-10,11-dihydrodibenz[b,f]oxepin-10-one]",≤ 50%
23,O=C1Cc2cc(C#CCO)ccc2Oc2cc(O)cc(O)c21 [Compound 114],≥ 50%
24,"O=C1Cc2cc([N+](=O)[O-])ccc2Oc2cc(O)cc(O)c21 [Compound 70, 2-nitro-7,9-dihydroxy-10,11-dihydrodibenz[b,f]oxepin-10-one]",≥ 50%

# From patent publication US6495592B1, “Tracheal smooth muscle relaxants” (Nippon Suisan Kaisha, Ltd., priority 1996, dated 2002)
